This note sets out measurements from ChEMBL document CHEMBL1201862, “PubChem BioAssay data set” (2004).

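How tested: cells in 96-well plates exposed to compound for 48 hours at five concentrations. Abbreviation: GI50, concentration required for 50% inhibition of growth.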 Calls of active or inactive are those of the source. Cut-off read from the data, not from the text of the source: active = GI50 up to about 1.1 µM and inactive = higher. Starred links: 1 amine or outer side, 2 acyl side, 3 side chain; linkers in the order of their positions; H or OH if unused. Non-standard residues stand in square brackets, D forms with d. Residues, ends and D or L forms follow the SMILES beside them. X4 = C[C@H](N[*:1])C(=O)C(C)(C)C(=O)[*:2]; Hmpa(2S,3S) = CC[C@H](C)[C@H](O)C(=O)O; NMeY = CN[C@@H](Cc1ccc(O)cc1)C(=O)O; NMeL = CN[C@@H](CC(C)C)C(=O)O; NMeV = CN[C@H](C(=O)O)C(C)C; βAla = NCCC(=O)O

Among the test systems are Malme-3M; SK-OV-3; DMS-273; M14; DLD-1; HCC 2998; TK-10; HOP-62; COLO 205; NCI-H23; OVCAR-4; SK-MEL-2; HT-29; A498; KM-20L2; HOP-92; DU-145; Hs-578T; T47D; PC-3.
What all share (test): NCI anticancer screen, dose series, 48 h

`O=C1C=C/C(=N\c2ccc3c(c2)C(Br)c2ccccc2-3)O1` (stereo not given): the GI50 with Malme-3M is > 100 µM (inactive); in the assay on SK-OV-3 it was > 100 µM (inactive); with DMS-273 it was > 10 µM (inactive); in the assay on M14, > 100 µM (inactive); in the assay on DLD-1, > 100 µM (inactive); in the assay on HCC 2998, > 100 µM (inactive). Besides, the GI50 in the assay with TK-10, in the assay with HOP-62, in the assay with COLO 205 and in the assay with NCI-H23 was > 100 µM (inactive) in each case.

As to `O=C(NC1CCCCCC1)C1C(=O)N(C2CCCCCC2)C(=O)/C1=N\O` (stereo not given), the GI50 is 24.4 µM (inactive) in the assay with Malme-3M; 38.4 µM (inactive) with SK-OV-3; 44.1 µM (inactive) in the assay on OVCAR-4; 17.1 µM (inactive) in the assay on SK-MEL-2; 30.3 µM (inactive) with HT-29; 32.1 µM (inactive) in the assay on M14. The GI50 in the assay with DLD-1 is 44.1 µM (inactive); with A498, 32.9 µM (inactive); in the assay on HCC 2998, 19.5 µM (inactive); with TK-10 it was 6.12 µM (inactive); in the assay on HOP-62, 18.7 µM (inactive); with COLO 205, 17.3 µM (inactive). Besides, the GI50 in the assay on NCI-H23 is 26.5 µM (inactive); with KM-20L2, 23.1 µM (inactive); with HOP-92 it was 20.6 µM (inactive).

As to `CCOC(=O)C1C(=O)CC(=O)C2CCCCC21` (stereo not given), the GI50 in the assay on Malme-3M, in the assay with SK-OV-3, with OVCAR-4, in the assay on SK-MEL-2, in the assay with DMS-273 and in the assay on M14 was > 100 µM (inactive) throughout. Moreover, the GI50 with DLD-1, in the assay with A498, in the assay on TK-10, in the assay on HOP-62, in the assay with COLO 205 and in the assay with NCI-H23 was > 100 µM (inactive) in each case. Moreover, the GI50 with HOP-92 was > 100 µM (inactive).

With `Cc1c2c(OCC3CCCCO3)nn(C)c(=O)c2c(C)n1-c1ccccc1` (stereo not given), the GI50 in the assay with Malme-3M was 18.7 µM (inactive); in the assay with SK-OV-3 it was 18.3 µM (inactive); with OVCAR-4 it was 15.8 µM (inactive); in the assay on SK-MEL-2, 24.1 µM (inactive); in the assay on HT-29, 31.6 µM (inactive); in the assay with DU-145, 17.7 µM (inactive). The GI50 with Hs-578T was 21.2 µM (inactive); with M14, 19.1 µM (inactive); in the assay with A498, 14.9 µM (inactive); in the assay with HCC 2998 it was 15.3 µM (inactive); in the assay on TK-10 it was 20.6 µM (inactive); in the assay on HOP-62, 19.2 µM (inactive). Further, the GI50 with COLO 205 was 17.4 µM (inactive); with T47D, 22.1 µM (inactive); in the assay with NCI-H23, 20 µM (inactive); in the assay on PC-3, 19.7 µM (inactive); in the assay on HOP-92 it was 18 µM (inactive).

Turning to `CCOP(=O)(OCC)C(c1ccc(F)cc1)N(C(=O)NC(F)(F)F)c1cccc(C(F)(F)F)c1` (stereo not given), the GI50 in the assay with Malme-3M was > 100 µM (inactive); in the assay with SK-OV-3, > 100 µM (inactive); with OVCAR-4 it was 96.4 µM (inactive); with SK-MEL-2 it was > 100 µM (inactive); in the assay with HT-29 it was 86.9 µM (inactive); in the assay on DU-145, > 100 µM (inactive). Further, the GI50 is 59.8 µM (inactive) in the assay on Hs-578T; > 100 µM (inactive) in the assay with M14; > 100 µM (inactive) with A498; > 100 µM (inactive) in the assay on HCC 2998; > 100 µM (inactive) in the assay on TK-10; > 100 µM (inactive) in the assay with HOP-62. The GI50 with COLO 205 is > 100 µM (inactive); in the assay on T47D, 83.9 µM (inactive); with NCI-H23, > 100 µM (inactive); in the assay on PC-3, > 100 µM (inactive); in the assay with HOP-92, 33.2 µM (inactive).

Take `COC(=O)C1c2cc3c(cc2C(OC2OC(C)C(OC)C(C)(OC)C2OC)CC1(C)O)C(=O)c1c(O)cc2c(c1C3=O)OC1OC2(C)C(O)C([N+](C)(C)[O-])C1O` (stereo not given): the GI50 is 0.0581 µM (active) in the assay on Malme-3M; 1.64 µM (inactive) in the assay on SK-OV-3; 4.09 µM (inactive) in the assay with OVCAR-4; 0.137 µM (active) with SK-MEL-2; 0.173 µM (active) with HT-29; 0.275 µM (active) in the assay on DU-145. Also, the GI50 in the assay on Hs-578T is 0.165 µM (active); in the assay with M14, 0.482 µM (active); in the assay on A498, 0.184 µM (active); in the assay with HCC 2998 it was 0.146 µM (active); in the assay with TK-10 it was 2.83 µM (inactive); in the assay with HOP-62 it was 0.336 µM (active). Also, the GI50 was 0.0634 µM (active) in the assay on COLO 205; 0.13 µM (active) in the assay on T47D; 0.105 µM (active) in the assay with NCI-H23; 0.355 µM (active) in the assay on PC-3; 0.144 µM (active) in the assay on HOP-92.

Turning to `CC(C)(C)C1CCC2c3c([nH]c4ccccc34)C3C(=O)N(c4ccccc4)C(=O)C3C2C1` (stereo not given), the GI50 in the assay with Malme-3M was 2.4 µM (inactive); with SK-OV-3, 2.15 µM (inactive); in the assay with OVCAR-4 it was 1.86 µM (inactive); in the assay on DMS-273, 3.34 µM (inactive); in the assay with HT-29, 8.93 µM (inactive); with M14, 4.43 µM (inactive). The GI50 was 20.4 µM (inactive) in the assay with DLD-1; 2.5 µM (inactive) with A498; 9.53 µM (inactive) in the assay with HCC 2998; 3.71 µM (inactive) with TK-10; 4.35 µM (inactive) in the assay with COLO 205; 12 µM (inactive) in the assay with NCI-H23.

As to `N/C(=N\O)N/N=C/c1cccs1`, the GI50 is 55.8 µM (inactive) with Malme-3M; 37.8 µM (inactive) with SK-OV-3; 34 µM (inactive) in the assay with OVCAR-4; 76.7 µM (inactive) in the assay with SK-MEL-2; > 100 µM (inactive) in the assay on DMS-273; 45.1 µM (inactive) in the assay on HT-29. In addition, the GI50 in the assay with M14 was 47.1 µM (inactive); in the assay on DLD-1 it was 59.6 µM (inactive); with A498, > 100 µM (inactive); in the assay on HCC 2998 it was 33.4 µM (inactive); in the assay on TK-10, > 100 µM (inactive); with HOP-62, 24.7 µM (inactive). The results for the GI50 with COLO 205, in the assay with NCI-H23 and in the assay on HOP-92 were 55.7 µM (inactive), > 100 µM (inactive) and > 100 µM (inactive), respectively.

Consider `CC(CSC(=N)N)C(N)=O` (stereo not given), for which the GI50 in the assay with Malme-3M, with SK-OV-3, in the assay on OVCAR-4, in the assay with SK-MEL-2, with HT-29 and with DU-145 was > 100 µM (inactive) each time. For the same compound, the GI50 in the assay with Hs-578T, with M14, with A498, with HCC 2998, in the assay on TK-10 and in the assay on HOP-62 was > 100 µM (inactive) throughout. Further, the GI50 with COLO 205, in the assay on T47D, in the assay with NCI-H23, with PC-3 and with HOP-92 was > 100 µM (inactive) each time.

Turning to `COc1ccccc1/C=C1\C(=O)N(C(=O)c2ccc(NC(C)=O)cc2)N=C1C`, the GI50 in the assay on Malme-3M, in the assay on OVCAR-4, with SK-MEL-2, in the assay on DMS-273, with HT-29 and in the assay on DLD-1 was > 100 µM (inactive) throughout. Moreover, the GI50 with HCC 2998, in the assay on TK-10, with HOP-62, in the assay with COLO 205 and in the assay on NCI-H23 was > 100 µM (inactive) throughout.

For `CC12CC3CC(C)(C1)CC(N=[N+]=[N-])(C3)C2`, the GI50 with Malme-3M, in the assay with SK-OV-3, in the assay with OVCAR-4, in the assay on SK-MEL-2, in the assay on DMS-273 and with HT-29 was > 100 µM (inactive) each time. In addition, the GI50 in the assay with M14, with DLD-1, in the assay with A498, in the assay with HCC 2998, in the assay with TK-10 and in the assay on HOP-62 was > 100 µM (inactive) each time. Also, the GI50 with COLO 205, in the assay on NCI-H23 and in the assay with HOP-92 was > 100 µM (inactive) in each case.

`COc1cc(OC)c2c(=O)cc(-c3ccc(OC)c(OC)c3OC)oc2c1`: the GI50 in the assay on Malme-3M is > 100 µM (inactive); in the assay with SK-OV-3 it was > 100 µM (inactive); in the assay with OVCAR-4, 54.3 µM (inactive); with SK-MEL-2, 60.1 µM (inactive); in the assay on HT-29 it was > 100 µM (inactive); with M14, > 100 µM (inactive). Further, the GI50 in the assay on DLD-1 was > 100 µM (inactive); in the assay with HCC 2998, > 100 µM (inactive); in the assay with TK-10, > 100 µM (inactive); with HOP-62, 27.7 µM (inactive); with COLO 205, > 100 µM (inactive); in the assay with NCI-H23 it was > 100 µM (inactive). In addition, the GI50 was > 100 µM (inactive) in the assay with KM-20L2 and 37 µM (inactive) in the assay on HOP-92.

Consider `CC[C@H](C)[C@@H]1OC(=O)CCNC(=O)[C@@H](C)NC(=O)C(C)(C)C(=O)[C@H](C)NC(=O)[C@H](Cc2ccc(OC)cc2)N(C)C(=O)[C@H](C(C)C)N(C)C(=O)CNC(=O)[C@H](CC(C)C)N(C)C(=O)CNC1=O` (cyclo(G[NMeL]G[NMeV][NMeY](Me)[X4][dA][βAla][Hmpa(2S,3S)])), for which the GI50 in the assay with Malme-3M was 0.217 µM (active); in the assay with SK-OV-3 it was 0.294 µM (active); in the assay with OVCAR-4, 0.284 µM (active); in the assay with SK-MEL-2 it was 0.222 µM (active); in the assay with HT-29, 1.84 µM (inactive); in the assay with DU-145, 2.71 µM (inactive). Besides, the GI50 was 0.916 µM (active) in the assay with Hs-578T; 0.885 µM (active) in the assay with M14; 1.38 µM (inactive) in the assay with A498; 0.0715 µM (active) in the assay with HCC 2998; 1.67 µM (inactive) in the assay on TK-10; 0.962 µM (active) with HOP-62. Also, the GI50 in the assay with COLO 205 is 0.0252 µM (active); with T47D, 2.19 µM (inactive); in the assay with NCI-H23, 0.262 µM (active); in the assay with PC-3, 0.31 µM (active); with HOP-92, 0.665 µM (active).
